# US8912121B2, “Herbicidal compositions comprising 4-amino-3-chloro-5-fluoro-6-(4-chloro-2-fluoro-3-methoxyphenyl)pyridine-2-carboxylic acid or a derivative thereof and certain PS II inhibitors” (Dow Agrosciences LLC, priority 2012, dated 2014)
# Assays:
# [1] = test system: KCHSC (Kochia scoparia, kochia); assay: Postemergence herbicidal activity of mixtures in cereal crops, greenhouse; type: in vivo, Kochia scoparia (L.) Schrad.
# Procedure: Seeds of the desired test plant species were planted in Sun Gro MetroMix® 306 planting mixture, which typically has a pH of 6.0 to 6.8 and an organic matter content of about 30 percent, in plastic pots with a surface area of 103.2 square centimeters (cm^2). When required to ensure good germination and healthy plants, a fungicide treatment and/or other chemical or physical treatment was applied. The plants were grown for 7-36 days in a greenhouse with an approximate 14 hour photoperiod which was maintained at about 18° C. during the day and about 17° C. during the night. Nutrients and water were added on a regular basis and supplemental lighting was provided with overhead metal halide 1000-Watt lamps as necessary. The plants were employed for testing when they reached the second or third true leaf stage.
# Treatments consisted of the benzyl ester of 4-amino-3-chloro-5-fluoro-6-(4-chloro-2-fluoro-3-methoxy-phenyl)pyridine-2-carboxylic acid (Compound A), formulated as an SC, a second cereal herbicide alone and then both in combination.
# Other herbicidal components were applied on an active ingredient basis and included PSII-inhibiting herbicides.
# Measured aliquots of benzyl ester of 4-amino-3-chloro-5-fluoro-6-(4-chloro-2-fluoro-3-methoxy-phenyl)pyridine-2-carboxylic acid (Compound A) were placed in 25 milliliter (mL) glass vials and diluted in a volume of 1.25% (v/v) Agri-Dex® crop oil concentrate to obtain stock solutions. Compound requirements are based upon a 12 mL application volume at a rate of 187 liters per hectare (L/ha). Spray solutions of the second cereal herbicide and experimental compound mixtures were prepared by adding the stock solutions to the appropriate amount of dilution solution to form 12 mL spray solution with active ingredients in two- and three-way combinations. Formulated compounds were applied to the plant material with an overhead Mandel track sprayer equipped with an 8002E nozzle calibrated to deliver 187 L/ha over an application area of 0.503 square meters (m^2) at a spray height of 18 inches (46 cm) above average plant canopy. Control plants were sprayed in the same manner with the solvent blank.
# The treated plants and control plants were placed in a greenhouse as described above and watered by sub-irrigation to prevent wash-off of the test compounds. After 20-22 days, the condition of the test plants as compared with that of the control plants was determined visually and scored on a scale of 0 to 100 percent where 0 corresponds to no injury and 100 corresponds to complete kill.
# Colby's equation was used to determine the herbicidal effects expected from the mixtures (Colby, S. R. 1967. Calculation of the synergistic and antagonistic response of herbicide combinations. Weeds 15:20-22).
# The following equation was used to calculate the expected activity of mixtures containing two active ingredients, A and B: Expected=A+B−(A×B/100)
# [2] = test system: CYPRO (Cyperus rotundus, purple nutsedge); assay: In-water applied mixtures, transplanted paddy rice, greenhouse; type: in vivo, Cyperus rotundus L.; conditions: 19 DAA
# Procedure: Weed seeds or nutlets of the desired test plant species were planted in puddled soil (mud) prepared by mixing a shredded, non-sterilized mineral soil (50.5 percent silt, 25.5 percent clay, and 24 percent sand, with a pH of about 7.6 and an organic matter content of about 2.9 percent) and water at a 1:1 volumetric ratio. The prepared mud was dispensed in 365 mL aliquots into 16-ounce (oz.) non-perforated plastic pots with a surface area of 86.59 square centimeters (cm^2) leaving a headspace of 3 centimeters (cm) in each pot Mud was allowed to dry overnight prior to planting or transplanting. Rice seeds were planted in Sun Gro MetroMix® 306 planting mixture, which typically has a pH of 6.0 to 6.8 and an organic matter content of about 30 percent, in plastic plug trays. Seedlings at the second or third leaf stage of growth were transplanted into 840 mL of mud contained in 32-oz. non-perforated plastic pots with a surface area of 86.59 cm^2 4 days prior to herbicide application. The paddy was created by filling the headspace of the pots with 2.5 to 3 cm of water. When required to ensure good germination and healthy plants, a fungicide treatment and/or other chemical or physical treatment was applied. The plants were grown for 4-22 days in a greenhouse with an approximate 14 h photoperiod which was maintained at about 29° C during the day and 26° C. during the night. Nutrients were added as Osmocote® (19:6:12, N:P:K+ minor nutrients) at 2 g per 16-oz. pot and 4 g per 32-oz. pot. Water was added on a regular basis to maintain the paddy flood, and supplemental lighting was provided with overhead metal halide 1000-Watt lamps as necessary. The plants were employed for testing when they reached the first through fourth true leaf stage.
# Treatments consisted of the acid or esters of 4-amino-3-chloro-5-fluoro-6-(4-chloro-2-fluoro-3-methoxy-phenyl)pyridine-2-carboxylic acid (compound A) each formulated as an SC (suspension concentrate) and various herbicidal components alone and in combination. Forms of compound A were applied on an acid equivalent basis.
# Other herbicidal components were applied on an active ingredient basis and included photosystem II (PSII)-inhibits propanil formulated as […] bentazon-sodium formulated as Basagran®, and simetryne (technical grade material).
# Treatment requirements for each compound or herbicidal component were calculated based upon the rates being tested, the concentration of active ingredient or acid equivalent in the formulation, an application volume of 2 mL per component per pot, and an application area of 86.59 cm^2 per pot.
# For formulated compounds, a measured amount was placed in an individual 100 or 200 mL glass vial and was dissolved in a volume of 1.25% (v/v) Agri-Dex® crop oil concentrate to obtain application solutions.
# For technical grade compounds, a weighed amount was placed in an individual 100 to 200 mL glass vial and was dissolved in a volume of acetone to obtain concentrated stock solutions. […] The concentrated stock solutions obtained were diluted with an equivalent volume of an aqueous mixture containing 2.5% (v/v) crop oil concentrate so that the final application solutions contained 1.25% (v/v) crop oil concentrate.
# Applications were made by injecting with a pipetter appropriate amounts of the application solutions, individually and sequentially, into the aqueous layer of the paddy. Control plants were treated in the same manner with the solvent blank. Applications were made so that all treated plant material received the same concentrations of acetone and crop oil concentrate.
# The treated plants and control plants were placed in a greenhouse as described above and water was added as needed to maintain a paddy flood. After approximately 3 weeks the condition of the test plants as compared with that of the untreated plants was determined visually and scored on a scale of 0 to 100 percent where 0 corresponds to no injury or growth inhibition and 100 corresponds to complete kill. […]
smiles,measurement,setting,value
"COc1c(Cl)ccc(-c2nc(C(=O)OCc3ccccc3)c(Cl)c(N)c2F)c1F [Compound A Benzyl Ester, benzyl ester of 4-amino-3-chloro-5-fluoro-6-(4-chloro-2-fluoro-3-methoxy-phenyl)pyridine-2-carboxylic acid]",Visual Weed Control (%)-21 DAA KCHSC Obs,[1]; Compound A Benzyl Ester 2.5 g ai/ha,20%
same,Visual Weed Control (%)-21 DAA KCHSC Obs,[1]; Compound A Benzyl Ester 5 g ai/ha,41%
same,Visual Weed Control (%)-21 DAA KCHSC Obs,[1]; Compound A Benzyl Ester 10 g ai/ha,62%
same,Visual Weed Control (%) Obs,[2]; 8 g ae/ha,50%
same,Visual Weed Control (%) Obs,[2]; 16 g ae/ha,85%
same,Visual Weed Control (%) Obs,[2]; 32 g ae/ha,90%
